How the values were obtained:
[1] = test system: Zygosaccharomyces rouxii, Candida albicans and Aspergillus brasiliensis; assay: Efficacy of microbial preservation, Example 4, overall; type: cell-based; settings: ascorbic acid 0.20-0.70 g/100 mL with sorbic acid 0.3 g/100 mL, pH 3.5
[2] = test system: E. coli, P. aeruginosa, S. aureus, C. albicans, A. brasiliensis; assay: Antimicrobial efficacy, Example 3, overall evaluation of Tables 6 and 7; type: cell-based; settings: solutions of Table 4
Excerpt: The testing criteria applied are those for evaluation of antimicrobial activity for oral preparations according to Pharm. Eur. 7 (tests at 14 days and 28 days). The acceptance criteria of the Ph. Eur. 7, Method 5.1.3 “Efficacy of Antimicrobial Preservation” USP 34, and Method <51> Antimicrobial Effectiveness Testing are listed in the following Table 2.

[3] = type: physicochemical
Procedure: As already described in EP 0 439 030 and WO 2005/08467, pimobendan drug substance is insoluble in water: 1 g drug substance is soluble in more than 10,000 mL. At pH 7 the solubility of pimobendan is only about 0.1 mg per 100 mL.
The solubility of pimobendan in aqueous solutions is depends on the pH. […] However, the local tolerance and palatability as well as the chemical stability of such a formulation are not acceptable. This is due to the fact that the target dose would require a drug concentration in solution which can only be achieved by a pH of about pH 2.5 and lower. […] Accordingly, a pimobendan formulation comprising up to 1.5 mg/mL of pimobendan would need an increase in solubility at pH 7 by a factor of about 1000 to 1500, not achieved in prior art formulations for oral administration up to now.

[4] = Solubility of pimobendan in cyclodextrin solutions (FIG. 1-3); type: physicochemical
Procedure: The last row of columns represents the reference control, which is the respective solution without preservative (“none”). […] FIG. 2 is a schematic diagram wherein the solubility of pimobendan is shown as a function of type and concentration of polymer, salt or complexation agent. In order to determine the degree of complexation, the effect of three different polymers, three different salts and one chelating agent on the solubility of pimobendan was tested. The pH of the solution was 4.5. Metolose is hydroxypropyl methylcellulose=HPMC=Hypromellose. Klucel ELF is hydroxypropyl cellulose=HPC. The number after the chemical name indicates the concentration of additive in % (m/V). FIG. 3 is a schematic diagram wherein the solubility of pimobendan is shown as a function of concentration of hydroxypropyl-ß-cyclodextrin and presence of sodium sorbate and hydroxypropyl methylcellulose (HPMC). Therefore, in FIG. 3 the effect of sodium sorbate and HPMC on the solubility of pimobendan was illustrated, and also the effect of concentration of hydroxypropyl-ß-cyclodextrin on the pimobendan solubility. Concentrations of sodium sorbate of 1.0% (m/V) and of HPMC of 0.1% (m/V) were used. The pH value was set to 4.5 using hydrochloric acid in all solutions.

[5] = cited from earlier work

**Q.** With `O=C1O[C@H]([C@@H](O)CO)C(O)=C1O` [ascorbic acid] as the molecule, how does the “efficacy of preservation versus concentration of antioxidant” value [1] read?
**A.** Its value is “increasing efficacy of preservation with increasing concentration of antioxidant”.

**Q.** For `C/C=C/C=C/C(=O)O` [sorbic acid], which “antimicrobial efficacy (overall statement on Tables 6 and 7)” value [2] is on record?
**A.** The value was “good antimicrobial efficacy”.

**Q.** With `COc1ccc(-c2nc3ccc(C4=NNC(=O)CC4C)cc3[nH]2)cc1` (stereo not shown) [pimobendan, 4,5-dihydro-6-[2-(4-methoxyphenyl)-1H-benzimidazol-5-yl]-5-methyl-3(2H)-pyridazinone] as the molecule, how does the “solubility of pimobendan in aqueous solutions depending on pH” value [3] read?
**A.** Its value is “significantly higher at pH 1 to 2.5 than at higher pH values”.

**Q.** And the “solubility of pimobendan as a function of pH value (FIG. 1)” value ([4]; 25% (m/V) cyclodextrin, pH 3.5, 4.5, 5.5, 7, 9)?
**A.** The value was “highest solubility of pimobendan occurs at pH=3.5”.

**Q.** What about the “solubility of pimobendan as a function of preservative (FIG. 1)” value ([4]; 25% (m/V) cyclodextrin, versus reference control without preservative) of the same molecule?
**A.** Its value is “highest pimobendan solubility is achieved with sodium sorbate”.

**Q.** And the “solubility of pimobendan as a function of cyclodextrin type (FIG. 1)” value ([4]; 25% (m/V) hydroxypropyl-ß- or hydroxypropyl-gamma-cyclodextrin)?
**A.** Its value is “more soluble with hydroxypropyl-ß-cyclodextrin than hydroxypropyl-gamma-cyclodextrin”.

**Q.** What about the “solubility of pimobendan in presence of HPMC (FIG. 3)” value ([4]; HPMC 0.1% (m/V), hydroxypropyl-ß-cyclodextrin, pH 4.5) of the same molecule?
**A.** Its value is “significantly increases”.

**Q.** What about the “solubility of pimobendan on addition of HPMC (FIG. 2)” value ([4]; pH 4.5) of the same molecule?
**A.** Its value is “significant increase”.

**Q.** What about the “solubility of pimobendan on addition of salts or disodium edetate (FIG. 2)” value ([4]; pH 4.5) of the same molecule?
**A.** The value was “does not significantly increase”.

**Q.** And the “solubility of pimobendan with both HPMC and sodium sorbate (FIG. 3)” value ([4]; sodium sorbate 1.0% (m/V) and HPMC 0.1% (m/V), pH 4.5)?
**A.** Its value is “significantly increased”.

**Q.** What about the “solubility of pimobendan in presence of sodium sorbate (FIG. 3)” value ([4]; sodium sorbate 1.0% (m/V), hydroxypropyl-ß-cyclodextrin, pH 4.5) of the same molecule?
**A.** Its value is “significantly increases”.

**Q.** What about the solubility of pimobendan ([5]; pH 7) of the same molecule?
**A.** Its solubility of pimobendan is “about 0.1 mg per 100 mL”.

**Q.** And the “water in which 1 g drug substance is soluble” value ([5]; per 1 g drug substance, water)?
**A.** The value was “more than 10,000 mL”.

— patent US12357696B2, “Preserved etherified cyclodextrin derivatives containing liquid aqueous pharmaceutical composition” (Boehringer Ingelheim Vetmedica GmbH, priority 2013, dated 2025)
